Target: human HPK1 (MAP4K1) (Homo sapiens (Human), UniProt Q92918)
Test: HPK1 IC50 Assay
Type: biochemical
Settings: recombinant HPK1 kinase domain 0.15 nM, synthetic peptide substrate STK S1, 3 hours at 25° C., time-resolved fluorescence energy transfer; geometric mean of multiple experiments
Experimental: The enzymatic activity of human HPK1 (MAP4K1) was monitored in a biochemical assay in the presence or absence of compounds and using a synthetic peptide substrate. An increase in phosphorylation of the peptide by HPK1 was indicative of its kinase activity.
Recombinant HPK1 kinase domain produced via baculovirus infection of insect cells was obtained from Proteros (Proteros Biostructures #PR-0322) and was pre-activated in the presence of 2 mM ATP (Sigma-Aldrich, cat #GE27-2056-01) and 2 mM magnesium chloride for 16 hours at 4° C. The protein reaction mixture was then loaded to a desalting column (Thermo Fisher Scientific, Cat #89889) to remove excess ATP. HPK1 was eluted with buffer containing 20 mM Tris (2-Amino-2-(hydroxymethyl)propane-1,3-diol) pH 8.0, 150 mM NaCl, 2 mM dithiothreitol and 5% glycerol, and was frozen at −80° C. for later use. HPK1 dual phosphorylation was confirmed by mass spectrometry.
Ten nanoliters of test compounds dissolved in DMSO at various concentrations were dispensed into a 384-well ProxiPlate (PerkinElmer #6008289). Five microliters of a solution of recombinant HPK1 diluted in HPK1 kinase assay buffer (50 mM BES [N,N-Bis(2-hydroxyethyl)-2-aminoethanesulfonic acid], pH 7.0; 10 mM magnesium chloride; 0.01% Triton X-100; 1 mM dithiothreitol; 0.01% bovine serum albumin; 0.1 mM sodium orthovanadate) was added to the compound-containing plate and was incubated for 15 minutes at 25° C. Five microliters of a mixture of ATP (Sigma-Aldrich #A6559) and peptide substrate STK Si (Cisbio #61ST1BLC) diluted in HPK1 kinase assay buffer was then added to start the reaction. Final concentrations were 0.15 nM for HPK1, […], and 1 […]. The reaction mixture was incubated at 25° C. for 3 hours and was stopped with the addition of 10 μl of an EDTA (Ethylenediaminetetraacetic acid)-containing detection buffer (Cisbio #62SDBRDF) supplemented with Europium cryptate-labeled anti-phospho-serine/threonine antibodies (Cisbio #62ST1PEJ) and XL665-labeled streptavidin (Cisbio #610SAXLG). The mixture was incubated for 16 hours at room temperature and peptide phosphorylation was measured by time-resolved fluorescence energy transfer (665 nm/620 nm) on an Envision plate reader (PerkinElmer).
Data in Table 1 were normalized based on positive (staurosporine) and negative (DMSO) controls. Least squares curve fittings were performed using a four-parameter variable slope nonlinear regression model. IC50 is defined as the concentration of compound required to inhibit 50% of maximum phosphorylation. IC50 values from multiple experiments were averaged by geometric mean and the standard deviation was calculated.

human HPK1 (MAP4K1), sequence (Q92918 17-274): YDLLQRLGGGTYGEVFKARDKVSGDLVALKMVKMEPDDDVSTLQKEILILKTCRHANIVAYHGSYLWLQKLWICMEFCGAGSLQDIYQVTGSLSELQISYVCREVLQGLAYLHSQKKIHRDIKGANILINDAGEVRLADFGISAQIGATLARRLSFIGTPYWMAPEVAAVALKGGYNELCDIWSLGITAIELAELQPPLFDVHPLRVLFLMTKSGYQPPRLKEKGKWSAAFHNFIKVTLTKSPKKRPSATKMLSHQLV

Structure (SMILES) | IC50 [pM]
Cc1c(-c2cc(F)c3c(c2C)/C(=C/c2cc(C#N)c[nH]2)C(=O)N3)cnc2c1NCCO2 [Compound C12, (Z)-5-((7-fluoro-4-methyl-5-(8-methyl-2,3-dihydro-1H-pyrido[2,3-b][1,4]oxazin-7-yl)-2-oxoindolin-3-ylidene)methyl)-1H-pyrrole-3-carbonitrile] | 670
Cc1c[nH]c(/C=C2\C(=O)Nc3c(F)cc(-c4cnc5c(c4C)NCCO5)c(C)c32)c1 [Compound C13, (Z)-7-fluoro-4-methyl-3-((4-methyl-H-pyrrol-2-yl)methylene)-5-(8-methyl-2,3-dihydro-1H-pyrido[2,3-b][1,4]oxazin-7-yl)indolin-2-one] | 510
Cc1c(-c2cc(F)c3c(c2C)/C(=C/c2ccc[nH]2)C(=O)N3)cnc2c1NCCO2 [Compound C14, (Z)-3-((1H-pyrrol-2-yl)methylene)-7-fluoro-4-methyl-5-(8-methyl-2,3-dihydro-1H-pyrido[2,3-b][1,4]oxazin-7-yl)indolin-2-one] | 290
Cc1ncc(/C=C2\C(=O)Nc3ccc(-c4cnc5c(c4C)NCCO5)cc32)[nH]1 [Compound C15, (Z)-3-((2-methyl-H-imidazol-5-yl)methylene)-5-(8-methyl-2,3-dihydro-1H-pyrido[2,3-b][1,4]oxazin-7-yl)indolin-2-one] | 70
CCN(CC)CCNC(=O)c1c(C)[nH]c(/C=C2\C(=O)Nc3ccc(-c4cnc5c(c4C)NCCO5)cc32)c1C [Compound C16, (Z)—N-(2-(diethylamino)ethyl)-2,4-dimethyl-5-((5-(8-methyl-2,3-dihydro-1H-pyrido[2,3-b][1,4]oxazin-7-yl)-2-oxoindolin-3-ylidene)methyl)-1H-pyrrole-3-carboxamide] | 50
Cc1ccc(/C=C2\C(=O)Nc3ccc(-c4cnc5c(c4C)NCCO5)cc32)[nH]1 [Compound C17, (Z)-3-((5-methyl-H-pyrrol-2-yl)methylene)-5-(8-methyl-2,3-dihydro-1H-pyrido[2,3-b][1,4]oxazin-7-yl)indolin-2-one] | 50
Cc1c(-c2ccc3c(c2)/C(=C/c2ccns2)C(=O)N3)cnc2c1NCCO2 [Compound C18, (Z)-3-(isothiazol-5-ylmethylene)-5-(8-methyl-2,3-dihydro-1H-pyrido[2,3-b][1,4]oxazin-7-yl)indolin-2-one] | 3020
Cc1c(-c2ccc3c(c2)/C(=C/c2cc(Br)c[nH]2)C(=O)N3)cnc2c1NCCO2 [Compound C20, (Z)-3-((4-bromo-1H-pyrrol-2-yl)methylene)-5-(8-methyl-2,3-dihydro-1H-pyrido[2,3-b][1,4]oxazin-7-yl)indolin-2-one] | 160
Cc1c(-c2ccc3c(c2)/C(=C/c2cc(C#N)c[nH]2)C(=O)N3)cnc2c1NCCO2 [Compound C21, (Z)-5-((5-(8-methyl-2,3-dihydro-1H-pyrido[2,3-b][1,4]oxazin-7-yl)-2-oxoindolin-3-ylidene)methyl)-1H-pyrrole-3-carbonitrile] | 70
Cc1c[nH]c(/C=C2\C(=O)Nc3c(Cl)cc(-c4cnc5c(c4C)NCCO5)cc32)c1 [Compound C22, (Z)-7-chloro-3-((4-methyl-1H-pyrrol-2-yl)methylene)-5-(8-methyl-2,3-dihydro-1H-pyrido[2,3-b][1,4]oxazin-7-yl)indolin-2-one] | 2610
Cc1c(-c2cc(Cl)c3c(c2)/C(=C/c2ccc[nH]2)C(=O)N3)cnc2c1NCCO2 [Compound C23, (Z)-3-((1H-pyrrol-2-yl)methylene)-7-chloro-5-(8-methyl-2,3-dihydro-1H-pyrido[2,3-b][1,4]oxazin-7-yl)indolin-2-one] | 1980
Cc1c[nH]c(/C=C2\C(=O)Nc3c(C)cc(-c4cnc5c(c4C)NCCO5)cc32)c1 [Compound C24, (Z)-7-methyl-3-((4-methyl-1H-pyrrol-2-yl)methylene)-5-(8-methyl-2,3-dihydro-1H-pyrido[2,3-b][1,4]oxazin-7-yl)indolin-2-one] | 2930
Cc1c[nH]c(/C=C2\C(=O)Nc3c(F)cc(-c4cnc5c(c4C)NCCO5)cc32)c1 [Compound C25, (Z)-7-fluoro-3-((4-methyl-1H-pyrrol-2-yl)methylene)-5-(8-methyl-2,3-dihydro-1H-pyrido[2,3-b][1,4]oxazin-7-yl)indolin-2-one] | 50
Cc1c(-c2cc(F)c3c(c2)/C(=C/c2ccc[nH]2)C(=O)N3)cnc2c1NCCO2 [Compound C26, (Z)-3-((1H-pyrrol-2-yl)methylene)-7-fluoro-5-(8-methyl-2,3-dihydro-1H-pyrido[2,3-b][1,4]oxazin-7-yl)indolin-2-one] | 50
Cc1c(-c2ccc3c(c2)/C(=C/c2cnn[nH]2)C(=O)N3)cnc2c1NCCO2 [Compound C27, (Z)-3-((1H-1,2,3-triazol-5-yl)methylene)-5-(8-methyl-2,3-dihydro-1H-pyrido[2,3-b][1,4]oxazin-7-yl)indolin-2-one] | 1640
Cc1c[nH]c(/C=C2\C(=O)Nc3ccc(-c4cnc5c(c4C)NCCO5)cc32)c1 [Compound C28, (Z)-3-((4-methyl-H-pyrrol-2-yl)methylene)-5-(8-methyl-2,3-dihydro-1H-pyrido[2,3-b][1,4]oxazin-7-yl)indolin-2-one] | 50
Cc1c(-c2ccc3c(c2)/C(=C/c2ccc[nH]2)C(=O)N3)cnc2c1NCCO2 [Compound C29, (Z)-3-((1H-pyrrol-2-yl)methylene)-5-(8-methyl-2,3-dihydro-1H-pyrido[2,3-b][1,4]oxazin-7-yl)indolin-2-one] | 50
Cc1c(-c2ccc3c(c2)/C(=C/c2ccn[nH]2)C(=O)N3)cnc2c1NCCO2 [Compound C30, (Z)-3-((1H-pyrazol-5-yl)methylene)-5-(8-methyl-2,3-dihydro-1H-pyrido[2,3-b][1,4]oxazin-7-yl)indolin-2-one] | 970
Cc1c(-c2ccc3c(c2)/C(=C/c2ncc[nH]2)C(=O)N3)cnc2c1NCCO2 [Compound C31, (Z)-3-((1H-imidazol-2-yl)methylene)-5-(8-methyl-2,3-dihydro-1H-pyrido[2,3-b][1,4]oxazin-7-yl)indolin-2-one] | 770
Cc1c(-c2ccc3c(c2)/C(=C/c2cnc[nH]2)C(=O)N3)cnc2c1NCCO2 [Compound C32, (Z)-3-((1H-imidazol-5-yl)methylene)-5-(8-methyl-2,3-dihydro-1H-pyrido[2,3-b][1,4]oxazin-7-yl)indolin-2-one] | 260
Cc1c(-c2ccc3c(c2)/C(=C/c2ncc[nH]2)C(=O)N3)cnc2c1NC(=O)C1(CC1)O2 [Compound C33, (Z)-7′-(3-((1H-imidazol-2-yl)methylene)-2-oxoindolin-5-yl)-8′-methylspiro[cyclopropane-1,3′-pyrido[2,3-b][1,4]oxazin]-2′(1′H)-one] | 5660
Cc1c(-c2ccc3c(c2)/C(=C/c2cnc(C4CC4)[nH]2)C(=O)N3)cnc2c1NCCO2 [Compound C34, (Z)-3-((2-cyclopropyl-1H-imidazol-5-yl)methylene)-5-(8-methyl-2,3-dihydro-1H-pyrido[2,3-b][1,4]oxazin-7-yl)indolin-2-one] | 130
Cc1c(-c2cc(F)c3c(c2)/C(=C/c2cnc(C4CC4)[nH]2)C(=O)N3)cnc2c1NCCO2 [Compound C35, (Z)-3-((2-cyclopropyl-1H-imidazol-5-yl)methylene)-7-fluoro-5-(8-methyl-2,3-dihydro-1H-pyrido[2,3-b][1,4]oxazin-7-yl)indolin-2-one] | 50
CC/C(=C1/C(=O)Nc2ccc(-c3cnc4c(c3C)NCCO4)cc21)c1cnc[nH]1 [Compound C36, (Z)-3-(1-(1H-imidazol-5-yl)propylidene)-5-(8-methyl-2,3-dihydro-H-pyrido[2,3-b][1,4]oxazin-7-yl)indolin-2-one] | 1000
Cc1cc2c(cc1-c1cnc3c(c1C)NCCO3)/C(=C/c1cc3ccncc3[nH]1)C(=O)N2 [Compound C37, (Z)-3-((1H-pyrrolo[2,3-c]pyridin-2-yl)methylene)-6-methyl-5-(8-methyl-2,3-dihydro-1H-pyrido[2,3-b][1,4]oxazin-7-yl)indolin-2-one] | 690
Cc1cc2c(cc1-c1cnc3c(c1C)NCCO3)/C(=C/c1cc3ncccc3[nH]1)C(=O)N2 [Compound C38, (Z)-3-((1H-pyrrolo[3,2-b]pyridin-2-yl)methylene)-6-methyl-5-(8-methyl-2,3-dihydro-1H-pyrido[2,3-b][1,4]oxazin-7-yl)indolin-2-one] | 110
